Assays:
Brain homogenate = assay: Test 2: transformation into kynurenic acid in tissue homogenates (brain); format: in vitro ADME, rats; settings: for Amount of kynurenic acid formed: brain homogenate
Experimental: (§1) Male rats fasting for 16 hours were sacrificed and their organs were taken and homogenized in 5 volumes of 0,05 M phosphate buffer pH 7,4+0,14 M KCl.
(§2) Small amounts of homogenate (0,8 ml) were additioned with various amounts of 3-indolepyruvic acid or the derivatives thereof, dissolved into a buffer solution, and with a system for the production of free radicals, consisting of ascorbic acid (final 10^-5 M), FeCl3 (final 10^-6 M) and H2 O2 (final 10^-4 M). It was stirred at 37° C., then the reaction was blocked.

[1] = tested on: audiogenic convulsions in DBA2 mice; settings: known effect of kynurenic acid; cited from earlier work
NMDA induced convulsions = settings: cited from earlier work
excitatory aminoacids = settings: cited from earlier work; for agonism of excitatory aminoacids (in words): central nervous system of mammals
Kidney homogenate = assay: Test 2: transformation into kynurenic acid in tissue homogenates (kidney); format: in vitro ADME, rats; settings: final 1.6 mg
Experimental: as §1, §2

kynurenic acid = assay: Test 3: effect on the content of kynurenic acid after administration of IPA in rat; format: in vivo; settings: rat, in vivo
Excerpt: (§3) For the measurement of such levels after administration of 3-indolepyruvic acid or a derivative thereof, a system was set up based on ultraviolet detection of the compounds separated by high pressure liquid chromatography.
(§4) Briefly, after sacrific of the animal, some of the principal organs were taken and homogenized with alkaline ethanol. Proteins and cell remains were removed by centrifugation, whilst the over natant was adsorbed on Bio-Rad AG 1×8 resin. After washing with water it was eluted with formic acid. It was then passed on Bio-Rad AG 50W-×8 resin, eluted with 3% ammonia, dried and retaken with a small amount of water.
(§5) The sample thus obtained was injected into a Waters apparatus for high pressure liquid chromatography, using a C18 10 micron column and eluting with 0,02 m citric acid containing 10% of methanol. The kynurenic acid levels were extrapolated by the calibration line of the acid and reading at 234 nm.
Male rats were treated with saline solution (controls) or with various doses of IPA, which was injected 3 hours before sacrifice. Each lot comprised 10 animals.
The results are reported in picomoles/g of tissue (or ml of blood)±standard error.

[2] = tested on: tryptophan and kynurenic acid in the brain of rats; settings: rat, in vivo, ip, 250 mg/kg
Excerpt: as §3, §4, §5
Male rats were treated with saline solution (controls), IPA or tryptophan i.p. one hour before sacrifice. Each lot was of six animals.
The reported values are in picomoles/g for kynurenic acid and picomoles/mg for tryptophan.

[3] = tested on: audiogenic convulsions in DBA2 mice; assay: Test 6: audiogenic convulsions in DBA2 mice; format: in vivo
Experimental: To evaluate whether an increase in kynurenic acid in the brain after administration of IPA could have a protective action on neurons stressed by excitatory aminoacids, the experimental pattern of inducing convulsions in a particular strain of mice (DBA2) by selected sound stimulations was followed. […] The substances were injected intravenously one hour before the test. Then the number of animals showing tonic convulsions was measured.

COC(=O)C(=O)Cc1c[nH]c2ccccc12 [IPA-Methylester, 3-indolepyruvic acid methyl ester]
Amount of kynurenic acid formed (Brain homogenate; amount not given, 30'): 48 ng | Amount of kynurenic acid formed (Brain homogenate; amount not given, 60'): 65 ng | Amount of kynurenic acid formed (Brain homogenate; amount not given, 120'): 83 ng

COC(=O)C(Cc1ccc(O)cc1)NC(=O)C(=O)Cc1c[nH]c2ccccc12 (stereo not drawn) [IPE-TYR-Ome, 3indolepyruvic acid tyrosine methylester]
Amount of kynurenic acid formed (Brain homogenate; amount not given, 30'): 44 ng | Amount of kynurenic acid formed (Brain homogenate; amount not given, 60'): 48 ng | Amount of kynurenic acid formed (Brain homogenate; amount not given, 120'): 79 ng

O=C(O)c1cc(=O)c2ccccc2[nH]1 [kynurenic acid]
protection against audiogenic convulsions (in words) [1]: protective against convulsions | protection against the toxicity due to NMDA (in words) (NMDA induced convulsions; well known effect of kynurenic acid): protects against the toxicity due to NMDA | inhibition of the excitatory effects of quinolinic acid, N-methyl-D-aspartate and other aminoacids (in words) (excitatory aminoacids): powerful inhibitor

Nc1ccccc1C(=O)CC(N)C(=O)O (stereo not drawn) [kynurenine]
agonism of excitatory aminoacids (in words) (excitatory aminoacids): powerful agonists of excitatory aminoacids

O=C(O)c1cccnc1C(=O)O [quinolinic acid]
agonism of excitatory aminoacids (in words) (excitatory aminoacids): powerful agonists of excitatory aminoacids

N[C@@H](Cc1c[nH]c2ccccc12)C(=O)O [Tryptophan, tryptophan, reference compound]
Amount of kynurenic acid formed (Kidney homogenate; 30'): 55 ng | Amount of kynurenic acid formed (Kidney homogenate; 60'): 82 ng | Amount of kynurenic acid formed (Kidney homogenate; 120'): 111 ng | transformation into kynurenic acid in brain homogenate (in words) (Brain homogenate): never transformed into kynurenic acid | Amount of kynurenic acid formed (Brain homogenate; 1.6 mg, 30'): 0 ng | Amount of kynurenic acid formed (Brain homogenate; 1.6 mg, 60'): 0 ng | Amount of kynurenic acid formed (Brain homogenate; 1.6 mg, 120'): 0 ng | increase in the levels of kynurenic acid in the tissues (in words) (kynurenic acid): does not produce such an effect | KYN/TRP × 10^3 [2]: 0.16 | Animals with convulsions, % ([3]; 200 mg/Kg intravenously, one hour before the test): 80% | Animals with convulsions ([3]; 200 mg/Kg intravenously, one hour before the test, number/total): 8/10 | protective action against tonic convulsions induced by sound stimulations (in words) ([3]; DBA2 mice): no effective action

CN[C@H](CC(=O)O)C(=O)O [NMDA, N-methyl-D-aspartic acid]
neurotoxic effect (in words) (NMDA induced convulsions; activation of receptors of the excitatory aminoacids): powerful neurotoxic effect

COC(=O)C(Cc1ccccc1)NC(=O)C(=O)Cc1c[nH]c2ccccc12 (stereo not drawn) [IPE-PHE-Ome, 3indolepyruvic acid phenylalanine methylester]
Amount of kynurenic acid formed (Brain homogenate; amount not given, 30'): 75 ng | Amount of kynurenic acid formed (Brain homogenate; amount not given, 60'): 82 ng | Amount of kynurenic acid formed (Brain homogenate; amount not given, 120'): 92 ng
